Target: Stimulator of interferon genes protein [1-379,R71H,G230A,H232R,R293Q] (Homo sapiens, UniProt Q86WV6, G230A/H232R/R293Q/R71H)
Assay: 3H-cGAMP Filtration Binding Assay (HAQ STING)
Method: Compound and membrane then preincubated for 60 min at RT to allow compound binding to equilibrate. Following equilibration, 8 nM of [3H] c-GAMP ligand was prepared by diluting into assay buffer, and 50 uL of this working stock was then manually added to each well of the assay plate. […] The filter plates were then dried at 55° C. for 30 min using a pressurized VWR oven before 30 uL of Ultima GoldF scintillate was added to each well. Tritium levels for each reaction well were then measured using a PerkinElmer TopCount plate reader.

Stimulator of interferon genes protein [1-379,R71H,G230A,H232R,R293Q], sequence (Q86WV6 whole entry R71H/G230A/H232R/R293Q, looked up): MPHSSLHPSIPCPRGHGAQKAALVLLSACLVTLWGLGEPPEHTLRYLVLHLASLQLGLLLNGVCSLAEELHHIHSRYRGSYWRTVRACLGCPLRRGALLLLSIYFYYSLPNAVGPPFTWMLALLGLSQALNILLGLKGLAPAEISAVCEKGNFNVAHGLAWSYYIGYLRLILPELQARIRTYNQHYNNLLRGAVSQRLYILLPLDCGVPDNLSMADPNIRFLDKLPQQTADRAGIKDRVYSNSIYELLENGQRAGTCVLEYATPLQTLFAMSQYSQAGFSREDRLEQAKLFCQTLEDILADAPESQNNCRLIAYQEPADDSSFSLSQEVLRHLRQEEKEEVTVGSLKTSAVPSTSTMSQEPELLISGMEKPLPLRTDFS

EC50 | SMILES
61.4 nM | Nc1nc2c(ncn2[C@@H]2O[C@@H]3COP(=O)(S)OC4[C@@H](COP(=O)(S)O[C@H]2C3)O[C@@H](n2nnc3c(N)ncnc32)[C@H]4F)c(=O)[nH]1 (some centres not stated) [US11453697, Example 133]
1.05 nM | Nc1nc2c(ncn2[C@@H]2O[C@@H]3COP(=O)(S)O[C@H]4[C@H](F)[C@H](n5cnc6c(N)ncnc65)O[C@@H]4COP(=O)(O)O[C@@H]2[C@@H]3F)c(=O)[nH]1 (some centres not stated) [US11453697, Example 143]

Reference: BindingDB's records for patent US11453697 (Merck Sharp & Dohme, 2022)
